The results in this text go back to the supplement of paper PMC11208160.
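Also: IS621 recombinase and bridge RNA in Escherichia coli cells.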

The data set is described as follows: recombinant barcode read abundance after kanamycin selection (control-corrected) (log10(CPM+1)); higher = more efficient recombination; sequences stand for … in AGTGCAGAGAAAATCGGCCAGTTTTCTCTGCCTGCAGTCCGCATGCCGT…AGATTTATGCAGCGGACTGCCTTTCTCCCAAAGTGATAAACCGGACAGTATCATGGACCGGTTTTCCCGGTAATCCGTATTTGCAAGGTTGGTTTCACT; site = the 11-nt target. Summed up: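 Recombination efficiency in this pooled E. coli screen uses counts per million of barcodes at recombinant junctions, averaged and corrected against the control. The reported form is log10(CPM+1). Two replicates were plated on chloramphenicol/ampicillin LB agar as control and two on chloramphenicol/ampicillin/kanamycin with 0.1 mM IPTG.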
For “ATTAGTGCTTGGGTTCTAACCTGTTGCCT (site ATTAGTGCTAG)”, the “recombinant barcode read abundance (log10)” value was determined as 0.0389.
With “ATTCACACTTGGGTTCTAACCTGTTGCGT (site ATTCACACTAC)”, the “recombinant barcode read abundance (log10)” value is 2.16.
As for “ATTCACACTTGGGTTCTAACCTGTTGCGT (site CGATTAGCTCG)”, the “recombinant barcode read abundance (log10)” value turned out to be 0.0576.
For “ATTGGATCTTGGGTTCTAACCTGTTGCCT (site ATTGGATCTAG)” the value was 0.391.
Take “ATTGGATCTTGGGTTCTAACCTGTTGCCT (site ATTGGCTCTAG)”: the “recombinant barcode read abundance (log10)” value turned out to be 0.0247.
Regarding “ATTGGATCTTGGGTTCTAACCTGTTGCCT (site ATTGGGTCTAG)”, the “recombinant barcode read abundance (log10)” value came out at 0.0971.
With “ATTGGATCTTGGGTTCTAACCTGTTGCCT (site ATTGGTTCTAG)”, the “recombinant barcode read abundance (log10)” value amounted to 0.205.
As for “ATTTCCACTTGGGTTCTAACCTGTTGCCT (site AAGTCCACTAG)”, the figure is 0.176; as for “ATTTCCACTTGGGTTCTAACCTGTTGCCT (site ATTTCCACTAG)”, 0.433; as for “ATTTGCCCTTGGGTTCTAACCTGTTGCCT (site AATTGCCCTAG)”, 0.222.
Consider “ATTTGCCCTTGGGTTCTAACCTGTTGCCT (site ACTTGCCCTAG)”, for which the “recombinant barcode read abundance (log10)” value worked out at 0.0987.
With “ATTTGCCCTTGGGTTCTAACCTGTTGCCT (site AGTTGCCCTAG)”, the “recombinant barcode read abundance (log10)” value came out at 0.0335.
On to “ATTTGCCCTTGGGTTCTAACCTGTTGCCT (site ATTTGCCCTAG)”, for which the “recombinant barcode read abundance (log10)” value came to 0.122.
For “CAAAACTCTTGGGTTCTAACCTGTTGCTT (site CAAAACTCTAA)” the value was 0.554; for “CAAAACTCTTGGGTTCTAACCTGTTGCTT (site TCCCCGGCTCC)”, 0.0614.
As for “CAAAAGGCTTGGGTTCTAACCTGTTGCAG (site CAAAAGGCTCT)”, the figure is 1.7.
For the sequence “CAAAAGGCTTGGGTTCTAACCTGTTGCAG (site CAAAGGGCTCT)”, the “recombinant barcode read abundance (log10)” value worked out at 0.386.
For “CAAAATTCTTGGGTTCTAACCTGTTGCGT (site CAAAATTCTAC)”, the “recombinant barcode read abundance (log10)” value amounted to 0.703.
As to “CAAAATTCTTGGGTTCTAACCTGTTGCGT (site CAGAATACTAC)”, the “recombinant barcode read abundance (log10)” value was 0.0891.
As for “CAAACAGCTTGGGTTCTAACCTGTTGCCT (site CAAACAACTAG)”, the figure is 0.0742.
For “CAAACAGCTTGGGTTCTAACCTGTTGCCT (site CAAACACCTAG)”, the “recombinant barcode read abundance (log10)” value is 0.634.
For “CAAACAGCTTGGGTTCTAACCTGTTGCCT (site CAAACAGCTAG)” the value was 0.824; for “CAAACAGCTTGGGTTCTAACCTGTTGCCT (site CAAACATCTAG)”, 0.113; for “CAAACCGCTTGGGTTCTAACCTGTTGCCT (site CAAACCGCTAG)”, 1.14.
With “CAAACCGCTTGGGTTCTAACCTGTTGCCT (site CCAACCGCTAG)”, the “recombinant barcode read abundance (log10)” value was 0.0884.
Consider “CAAACCGCTTGGGTTCTAACCTGTTGCCT (site CGAACCGCTAG)”, for which the “recombinant barcode read abundance (log10)” value came out at 0.356.
For “CAAACCGCTTGGGTTCTAACCTGTTGCCT (site CTAACCGCTAG)” the value was 0.117.
On to “CAAACTCCTTGGGTTCTAACCTGTTGCGT (site CAAACTCCTAA)”, for which the “recombinant barcode read abundance (log10)” value was 0.124.
As for “CAAACTCCTTGGGTTCTAACCTGTTGCGT (site CAAACTCCTAC)”, the figure is 0.951.
Take “CAAACTCCTTGGGTTCTAACCTGTTGCGT (site CAAACTCCTAG)”: the “recombinant barcode read abundance (log10)” value worked out at 0.0424.
For “CAAACTCCTTGGGTTCTAACCTGTTGCGT (site CAAACTCCTAT)” the value was 0.0528.
As for “CAAAGATCTTGGGTTCTAACCTGTTGCCT (site CAAAGATCTAG)”, the figure is 0.821; as for “CAAAGATCTTGGGTTCTAACCTGTTGCCT (site CCAAGATCTAG)”, 0.
As for “CAAAGATCTTGGGTTCTAACCTGTTGCCT (site CGAAGATCTAG)”, the figure is 0.023; as for “CAAAGATCTTGGGTTCTAACCTGTTGCCT (site CTAAGATCTAG)”, 0.165; as for “CAAATAACTTGGGTTCTAACCTGTTGCCT (site CAAATAACTAG)”, 0.461.
Regarding “CAAATAACTTGGGTTCTAACCTGTTGCCT (site CAGCTAACTAG)”, the “recombinant barcode read abundance (log10)” value stood at 0.134.
Regarding “CAAATCCCTTGGGTTCTAACCTGTTGCGT (site ATCGAGTCTTG)”, the “recombinant barcode read abundance (log10)” value was determined as 0.174.
With “CAAATCCCTTGGGTTCTAACCTGTTGCGT (site CAAATCCCTAC)”, the “recombinant barcode read abundance (log10)” value was found to be 2.08.
With “CAACACTCTTGGGTTCTAACCTGTTGCCT (site CAACACTCTAG)”, the “recombinant barcode read abundance (log10)” value was found to be 2.43.
For the sequence “CAACACTCTTGGGTTCTAACCTGTTGCCT (site CCACACTCTAG)”, the “recombinant barcode read abundance (log10)” value was determined as 0.452.
On to “CAACACTCTTGGGTTCTAACCTGTTGCCT (site CGACACTCTAG)”, for which the “recombinant barcode read abundance (log10)” value worked out at 0.102.
Turning to “CAACACTCTTGGGTTCTAACCTGTTGCCT (site CTACACTCTAG)”, the “recombinant barcode read abundance (log10)” value turned out to be 0.446.
With “CAACCGTCTTGGGTTCTAACCTGTTGCCT (site CAACCGACTAG)”, the “recombinant barcode read abundance (log10)” value was determined as 0.
For “CAACCGTCTTGGGTTCTAACCTGTTGCCT (site CAACCGCCTAG)” the value was 0.439; for “CAACCGTCTTGGGTTCTAACCTGTTGCCT (site CAACCGGCTAG)”, 0.0528; for “CAACCGTCTTGGGTTCTAACCTGTTGCCT (site CAACCGTCTAG)”, 1.33.
Regarding “CAACGACCTTGGGTTCTAACCTGTTGCCT (site AAACGACCTAG)”, the “recombinant barcode read abundance (log10)” value came out at 0.172.
With “CAACGACCTTGGGTTCTAACCTGTTGCCT (site CAACGACCTAG)”, the “recombinant barcode read abundance (log10)” value came out at 1.75.
Turning to “CAACGACCTTGGGTTCTAACCTGTTGCCT (site GAACGACCTAG)”, the “recombinant barcode read abundance (log10)” value was 0.171.
Regarding “CAACGACCTTGGGTTCTAACCTGTTGCCT (site TAACGACCTAG)”, the “recombinant barcode read abundance (log10)” value stood at 0.166.
For “CAACGAGCTTGGGTTCTAACCTGTTGCCG (site CAACGAGCTCG)”, the “recombinant barcode read abundance (log10)” value was 0.506.
“CAACGAGCTTGGGTTCTAACCTGTTGCCG (site CACCGAGCTCG)”: the “recombinant barcode read abundance (log10)” value amounted to 0.186.
On to “CAACGAGCTTGGGTTCTAACCTGTTGCCG (site CAGCGAGCTCG)”, for which the “recombinant barcode read abundance (log10)” value came to 0.
Take “CAACGAGCTTGGGTTCTAACCTGTTGCCG (site CATCGAGCTCG)”: the “recombinant barcode read abundance (log10)” value turned out to be 0.218.
Turning to “CAACGGCCTTGGGTTCTAACCTGTTGCCT (site CAAAGGCCTAG)”, the “recombinant barcode read abundance (log10)” value is 0.
In the case of “CAACGGCCTTGGGTTCTAACCTGTTGCCT (site CAACGGCCTAG)”, the “recombinant barcode read abundance (log10)” value was 0.796.
Turning to “CAACGGCCTTGGGTTCTAACCTGTTGCCT (site CAAGGGCCTAG)”, the “recombinant barcode read abundance (log10)” value was 0.55.
As to “CAACGGCCTTGGGTTCTAACCTGTTGCCT (site CAATGGCCTAG)”, the “recombinant barcode read abundance (log10)” value turned out to be 0.0566.
Consider “CAACTAGCTTGGGTTCTAACCTGTTGCAT (site CAACTAGCTAT)”, for which the “recombinant barcode read abundance (log10)” value was 0.691.
As to “CAACTAGCTTGGGTTCTAACCTGTTGCAT (site TTGTACACTGA)”, the “recombinant barcode read abundance (log10)” value is 0.028.
For “CAAGCACCTTGGGTTCTAACCTGTTGCTT (site CAAACACCTAA)”, the “recombinant barcode read abundance (log10)” value came to 0.121.
Take “CAAGCACCTTGGGTTCTAACCTGTTGCTT (site CAACCACCTAA)”: the “recombinant barcode read abundance (log10)” value is 0.0852.
Take “CAAGCACCTTGGGTTCTAACCTGTTGCTT (site CAAGCACCTAA)”: the “recombinant barcode read abundance (log10)” value worked out at 0.187.
“CAAGCACCTTGGGTTCTAACCTGTTGCTT (site CAATCACCTAA)”: the “recombinant barcode read abundance (log10)” value stood at 0.338.
As for “CAAGGTCCTTGGGTTCTAACCTGTTGCGG (site CAAGGTCCTCC)”, the figure is 2.68; as for “CAAGGTCCTTGGGTTCTAACCTGTTGCGG (site GTTACCTCTAG)”, 0.194; as for “CAAGTGGCTTGGGTTCTAACCTGTTGCCT (site CAAGTAGCTAG)”, 0.417.
As for “CAAGTGGCTTGGGTTCTAACCTGTTGCCT (site CAAGTCGCTAG)”, the “recombinant barcode read abundance (log10)” value was found to be 0.0501.
Turning to “CAAGTGGCTTGGGTTCTAACCTGTTGCCT (site CAAGTGGCTAG)”, the “recombinant barcode read abundance (log10)” value amounted to 1.21.
“CAAGTGGCTTGGGTTCTAACCTGTTGCCT (site CAAGTTGCTAG)”: the “recombinant barcode read abundance (log10)” value came out at 0.721.
As for “CAATATCCTTGGGTTCTAACCTGTTGCCT (site CAATATCCTAG)”, the figure is 1.09; as for “CAATATCCTTGGGTTCTAACCTGTTGCCT (site CACTATCCTAG)”, 0.0197.
Consider “CAATATCCTTGGGTTCTAACCTGTTGCCT (site CAGTATCCTAG)”, for which the “recombinant barcode read abundance (log10)” value was 0.143.
As for “CAATATCCTTGGGTTCTAACCTGTTGCCT (site CATTATCCTAG)”, the “recombinant barcode read abundance (log10)” value came to 0.0807.
For “CAATCTACTTGGGTTCTAACCTGTTGCCT (site CAACCTACTAG)”, the “recombinant barcode read abundance (log10)” value is 0.391.
For “CAATCTACTTGGGTTCTAACCTGTTGCCT (site CAATCTACTAG)” the value was 0.0558.
